The results in this text go back to PMC7170716 (Nature, 2020).

Assay [1] has as its target T1, M. thermoresistibile IrtAB (full-length) (Mycolicibacterium thermoresistibile, UniProt G7CBF5+G7CBF6).
T1 sequence (G7CBF5 1-908): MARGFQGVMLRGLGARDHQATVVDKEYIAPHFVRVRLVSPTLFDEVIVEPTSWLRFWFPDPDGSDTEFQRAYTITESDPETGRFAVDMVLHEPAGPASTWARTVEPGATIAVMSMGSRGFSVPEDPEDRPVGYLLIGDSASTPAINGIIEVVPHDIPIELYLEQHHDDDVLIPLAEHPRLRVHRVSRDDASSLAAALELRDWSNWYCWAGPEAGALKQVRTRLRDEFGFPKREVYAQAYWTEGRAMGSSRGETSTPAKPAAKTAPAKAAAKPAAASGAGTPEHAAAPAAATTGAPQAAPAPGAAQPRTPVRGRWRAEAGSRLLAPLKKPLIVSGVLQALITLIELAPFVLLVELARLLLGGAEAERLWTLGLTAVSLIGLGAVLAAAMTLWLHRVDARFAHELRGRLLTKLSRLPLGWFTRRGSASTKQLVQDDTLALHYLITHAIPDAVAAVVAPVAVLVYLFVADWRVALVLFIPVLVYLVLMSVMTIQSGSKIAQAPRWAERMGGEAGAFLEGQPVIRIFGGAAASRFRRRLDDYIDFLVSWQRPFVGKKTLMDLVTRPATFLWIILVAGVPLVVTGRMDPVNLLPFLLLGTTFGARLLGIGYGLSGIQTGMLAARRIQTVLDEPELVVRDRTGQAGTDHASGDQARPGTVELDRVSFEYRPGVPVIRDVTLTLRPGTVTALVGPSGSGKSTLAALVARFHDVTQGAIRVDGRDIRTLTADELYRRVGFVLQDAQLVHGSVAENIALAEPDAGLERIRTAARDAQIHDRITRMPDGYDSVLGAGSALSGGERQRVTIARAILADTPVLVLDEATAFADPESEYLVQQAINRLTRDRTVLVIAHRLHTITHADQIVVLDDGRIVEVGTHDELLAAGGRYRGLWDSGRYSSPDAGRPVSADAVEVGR
T1 sequence (G7CBF6 1-579): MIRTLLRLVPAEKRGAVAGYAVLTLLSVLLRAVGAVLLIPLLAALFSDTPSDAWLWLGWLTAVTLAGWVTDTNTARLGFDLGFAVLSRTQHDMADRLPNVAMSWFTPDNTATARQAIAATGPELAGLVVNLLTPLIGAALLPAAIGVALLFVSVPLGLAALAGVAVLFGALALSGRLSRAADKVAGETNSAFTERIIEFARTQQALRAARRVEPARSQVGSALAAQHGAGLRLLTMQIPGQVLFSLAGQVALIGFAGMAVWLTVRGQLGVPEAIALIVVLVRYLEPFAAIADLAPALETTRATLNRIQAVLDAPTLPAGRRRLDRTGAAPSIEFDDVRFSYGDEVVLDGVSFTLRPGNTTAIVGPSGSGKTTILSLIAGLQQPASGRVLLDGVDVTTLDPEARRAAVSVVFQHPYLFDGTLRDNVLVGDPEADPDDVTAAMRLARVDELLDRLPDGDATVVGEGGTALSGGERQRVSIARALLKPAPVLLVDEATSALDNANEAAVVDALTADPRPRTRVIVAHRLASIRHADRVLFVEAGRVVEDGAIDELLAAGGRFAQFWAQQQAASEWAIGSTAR
Put plainly: ATPase stimulation in nanodiscs, malachite green. Particulars: 2.5 mM ATP, 10 mM MgSO4, 37 °C, acyl chain length not defined. The format is biochemical.

Assay [2] concerns the target T2, M. smegmatis SID (Mycolicibacterium smegmatis, UniProt A0R6H8).
T2 sequence (A0R6H8 1-250 limits assumed): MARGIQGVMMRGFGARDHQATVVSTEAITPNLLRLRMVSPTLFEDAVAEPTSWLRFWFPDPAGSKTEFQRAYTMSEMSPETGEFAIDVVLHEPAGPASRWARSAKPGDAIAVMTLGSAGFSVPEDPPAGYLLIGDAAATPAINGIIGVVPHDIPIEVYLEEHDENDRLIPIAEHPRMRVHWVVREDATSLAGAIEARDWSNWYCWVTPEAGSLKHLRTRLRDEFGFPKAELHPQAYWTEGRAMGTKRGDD
In words: SPR, biotinylated SID on chip, equilibrium fit. It is filed as binding. Particulars: HPLC-purified Fe-cMBT (MW 799 Da), 0-100 μM; single experiment. Background: SPR reads the build-up and loss of mass on a sensor chip optically.

pKd: −log10 of the molar value.

In the case of Fe-MBT, the “fold ATPase stimulation” value in assay [1] (Fe-MBT 0.5-40 μM) is > 38 fold. For Fe-cMBT, in assay [2], the pKd was < 3.70. Further, the “fold ATPase stimulation” value in assay [1] (Fe-cMBT 0.5-40 μM) is on record as > 10 fold.

For orientation: pKd means the Kd on a negative log10 scale, so that one unit is a factor of ten.
